How the values were obtained:
[1] = Degradation of antibiotics in double distilled water by gamma radiation, UV-Vis absorption; assay type: physicochemical; conditions: 50 |iM in double distilled water, 7 kGy gamma radiation
Method: The three target antibiotics as mentioned above were dissolved in double distilled water to make desired concentrations (in 10 mL volume). […] UV-Vis absorption spectra of the studied antibiotics in solution were recorded before and after irradiation treatment at different doses.
With reference to FIG. 2A, the maximum absorption of doxycycline at 275 nm was plotted against the concentration.

[2] = Removal of amoxicillin spiked in water, milk, eggs and chicken meat by gamma radiation, HPLC; assay type: physicochemical; conditions: for Removal percentage: 7 kGy, average across 1, 10, 20 and 50 |iM, assuming 15% error
Excerpt: In all the example mentioned in the foregoing, the source of gamma radiation is a Cobalt-60 gamma rays source model Gamma Cell 220 from MDS Nordion, Canada. The source of gamma radiation was calibrated using aqueous ferrous sulfate (Fricke dosimetry) solution.
The desired concentration of amoxicillin was spiked in water, milk, eggs, and chicken meat. 20 |iL of spiked water samples before and post irradiation treatment was directly injected in HPLC. Amoxicillin spiked in milk, eggs, and chicken meat was extracted using acetonitrile. 2 mL (milk or eggs) or 2 g (chicken meat) of the spiked samples was mixed with 5 mL acetonitrile and shaken for 10 minutes following which the samples were centrifuged for 5 minutes at a speed of 3000 rpm. 5 mL of the supernatant was evaporated in a rotary-evaporation system and the antibiotic residue was dissolved in 2 mL of double distilled water. 20 |iL of the extracted samples was injected in HPLC.
Direct Uv-Vis measurements cannot be conducted to quantify the antibiotics in samples extracted from dairy or poultry products due to the significant chemical interference. FIG. 5 illustrates a comparison of HPLC signals of a range of amoxicillin concentration before and after irradiation with 7 kGy.
Removal percentage of amoxicillin in different samples with varied concentrations is reported by comparing the original concentrations with the corresponding post irradiation concentrations (i.e. before and after irradiation). FIG. 9 illustrates the average removal percentages for each sample type across the different concentration range (1, 10, 20, and 50 |iM), assuming 15% error in the observations. It was observed that there was 100% removal and decomposition of amoxicillin in water & milk samples and 80% removal of amoxicillin in eggs & chicken meat samples at a radiation dose of 7 kGy, within the permissible limits accepted by IAEA for food irradiation.

[3] = Degradation of amoxicillin by gamma radiation, 1H and 13C NMR; assay type: physicochemical; conditions: 5 mg/mL in water/D2O 1:1, 7 kGy
Method: Further, an additional confirmation of the degradation of amoxicillin was conducted using ^1H and ^13C NMR studies. Amoxicillin is dissolved in water and diluted at a ratio of 1:1 using D2O. A high concentration of amoxicillin (5 mg/mL) was used for this technique, with water as the NMR solvent. […] It is observed that the proton signals (at 4.5 to 4.8 ppm) of amoxicillin before irradiation are disappearing upon irradiation treatment. FIG. 11 illustrates the ^13C spectra of 5 mg/mL amoxicillin before and after irradiation treatment at 7 kGy for amoxicillin. Overall, the intensities of ^13C peaks are reduced (approximately 50%) after irradiation treatment indicating the decomposition and reduction in amoxicillin concentration in the sample.

E-coli = E-coli growth inhibition experiments; assay type: cell-based
Method: With reference to FIG. 12 (top panel), two control experiments with water were conducted.

Compound: CC1(C)S[C@@H]2[C@H](NC(=O)[C@H](N)c3ccc(O)cc3)C(=O)N2[C@H]1C(=O)O [amoxicillin]
- Removal (decrease of UV-Vis absorption bands) upon gamma irradiation [1]: completely removed
- Removal percentage ([2]; chicken meat samples): 80%
- Removal percentage ([2]; eggs samples): 80%
- Removal percentage ([2]; milk samples): 100%
- Concentration of amoxicillin after irradiation (HPLC) ([2]; range of concentrations, after irradiation with 7 kGy): below the detection limit of HPLC
- Removal percentage ([2]; water samples): 100%
- Reduction of intensities of 13C peaks after irradiation treatment [3]: approximately 50%
- Antimicrobial effect on E-coli growth (E-coli; amoxicillin 150 |iM irradiated at 7 kGy): complete loss of antimicrobial effect
- Antimicrobial effect on E-coli growth (E-coli; non-irradiated amoxicillin sample): growth inhibition
